Reference: PubChem BioAssay AID1963437 (Molecular Pharmacology Branch, DTP, NCI, 2024)

System: OVCAR-8 complex spheroid, growth inhibition
Assay: Anticancer human tumor OVCAR-8 cell line growth inhibition [Asc];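 note: spheroids exposed to agents for 7 days before readout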;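 for viability, T/C: percent viability relative to DMSO vehicle wells taken as 100%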
Conditions: for IC50: curve of first compound; for viability, T/C: stronger effect = lower value
Outline: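 Spheroid model: tumor line + HUVEC + hMSC. Single agents and combinations; top conc. at/near clinical Cmax (10 microM if undetermined), half-log dilutions. DMSO stocks at 800-fold test concentration.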

[1] = second compound 0.0316 µM, first compound 0.0316 µM
[2] = second compound 0.0316 µM, first compound 0.1 µM
[3] = second compound 0.1 µM, first compound 0.0316 µM
[4] = second compound 0.1 µM, first compound 0.1 µM
[5] = second compound 0.316 µM, first compound 0.0316 µM
[6] = second compound 0.316 µM, first compound 0.1 µM
[7] = second compound 1 µM, first compound 0.0316 µM
[8] = second compound 1 µM, first compound 0.1 µM
[9] = second compound 3.16 µM, first compound 0.0316 µM
[10] = second compound 3.16 µM, first compound 0.1 µM
[11] = second compound 10 µM, first compound 0.0316 µM
[12] = second compound 10 µM, first compound 0.1 µM

## Cc1nc(N2CCC3(CC2)COC(C)C3N)c(CO)nc1Sc1ccnc(N)c1Cl (stereo unspecified) + CNC(C)C(=O)NC1CN(S(=O)(=O)c2cccc(S(=O)(=O)N3CCC4CCC(C(=O)NC(c5ccccc5)c5ccccc5)N4C(=O)C(NC(=O)C(C)NC)C3)c2)CCC2CCC(C(=O)NC(c3ccccc3)c3ccccc3)N2C1=O
Second compound 0.00316 µM
  IC50: > 3 µM
Second compound 0.01 µM
  IC50: > 3 µM
Second compound 0.0316 µM
  IC50: > 3 µM
Second compound 0.1 µM
  IC50: > 3 µM
Second compound 0.316 µM
  IC50: > 3 µM
Second compound 1 µM
  IC50: > 3 µM
Second compound 0.00316 µM, first compound 0.00949 µM
  viability, T/C: 130%
Second compound 0.00316 µM, first compound 0.03 µM
  viability, T/C: 136%
Second compound 0.00316 µM, first compound 0.0949 µM
  viability, T/C: 208%
Second compound 0.00316 µM, first compound 0.3 µM
  viability, T/C: 235%
Second compound 0.00316 µM, first compound 0.949 µM
  viability, T/C: 260%
Second compound 0.00316 µM, first compound 3 µM
  viability, T/C: 245%
Second compound 0.01 µM, first compound 0.00949 µM
  viability, T/C: 111%
Second compound 0.01 µM, first compound 0.03 µM
  viability, T/C: 130%
Second compound 0.01 µM, first compound 0.0949 µM
  viability, T/C: 163%
Second compound 0.01 µM, first compound 0.3 µM
  viability, T/C: 251%
Second compound 0.01 µM, first compound 0.949 µM
  viability, T/C: 263%
Second compound 0.01 µM, first compound 3 µM
  viability, T/C: 237%
Second compound 0.0316 µM, first compound 0.00949 µM
  viability, T/C: 93%
Second compound 0.0316 µM, first compound 0.03 µM
  viability, T/C: 130%
Second compound 0.0316 µM, first compound 0.0949 µM
  viability, T/C: 166%
Second compound 0.0316 µM, first compound 0.3 µM
  viability, T/C: 205%
Second compound 0.0316 µM, first compound 0.949 µM
  viability, T/C: 248%
Second compound 0.0316 µM, first compound 3 µM
  viability, T/C: 224%
Second compound 0.1 µM, first compound 0.00949 µM
  viability, T/C: 86.7%
Second compound 0.1 µM, first compound 0.03 µM
  viability, T/C: 111%
Second compound 0.1 µM, first compound 0.0949 µM
  viability, T/C: 155%
Second compound 0.1 µM, first compound 0.3 µM
  viability, T/C: 166%
Second compound 0.1 µM, first compound 0.949 µM
  viability, T/C: 208%
Second compound 0.1 µM, first compound 3 µM
  viability, T/C: 171%
Second compound 0.316 µM, first compound 0.00949 µM
  viability, T/C: 70.7%
Second compound 0.316 µM, first compound 0.03 µM
  viability, T/C: 82.6%
Second compound 0.316 µM, first compound 0.0949 µM
  viability, T/C: 109%
Second compound 0.316 µM, first compound 0.3 µM
  viability, T/C: 169%
Second compound 0.316 µM, first compound 0.949 µM
  viability, T/C: 140%
Second compound 0.316 µM, first compound 3 µM
  viability, T/C: 110%
Second compound 1 µM, first compound 0.00949 µM
  viability, T/C: 81.5%
Second compound 1 µM, first compound 0.03 µM
  viability, T/C: 95.1%
Second compound 1 µM, first compound 0.0949 µM
  viability, T/C: 119%
Second compound 1 µM, first compound 0.3 µM
  viability, T/C: 123%
Second compound 1 µM, first compound 0.949 µM
  viability, T/C: 116%
Second compound 1 µM, first compound 3 µM
  viability, T/C: 75.1%

## Cn1ncnc1[C@H]1c2n[nH]c(=O)c3cc(F)cc(c23)N[C@@H]1c1ccc(F)cc1 + Cc1c(S(C)(=O)=O)c(-c2cc(F)cc(N3CCN(c4ccc(NS(=O)(=O)c5ccc(NC(CCN6CCC(C(=O)OCCCP(=O)(O)O)CC6)CSc6ccccc6)c(S(=O)(=O)C(F)(F)F)c5)cc4)CC3)c2)c(-c2ccc(Cl)cc2)n1C(C)C
Second compound 0.0316 µM
  IC50: > 0.1 µM
Second compound 0.1 µM
  IC50: > 0.1 µM
Second compound 0.316 µM
  IC50: > 0.1 µM
Second compound 1 µM
  IC50: > 0.1 µM
Second compound 3.16 µM
  IC50: > 0.1 µM
Second compound 10 µM
  IC50: > 0.1 µM
Second compound 0.0316 µM, first compound 0.000316 µM
  viability, T/C: 96.3%
Second compound 0.0316 µM, first compound 0.001 µM
  viability, T/C: 94.8%
Second compound 0.0316 µM, first compound 0.00316 µM
  viability, T/C: 90%
Second compound 0.0316 µM, first compound 0.01 µM
  viability, T/C: 103%
[1]
  viability, T/C: 127%
[2]
  viability, T/C: 149%
Second compound 0.1 µM, first compound 0.000316 µM
  viability, T/C: 103%
Second compound 0.1 µM, first compound 0.001 µM
  viability, T/C: 106%
Second compound 0.1 µM, first compound 0.00316 µM
  viability, T/C: 115%
Second compound 0.1 µM, first compound 0.01 µM
  viability, T/C: 123%
[3]
  viability, T/C: 123%
[4]
  viability, T/C: 155%
Second compound 0.316 µM, first compound 0.000316 µM
  viability, T/C: 122%
Second compound 0.316 µM, first compound 0.001 µM
  viability, T/C: 101%
Second compound 0.316 µM, first compound 0.00316 µM
  viability, T/C: 111%
Second compound 0.316 µM, first compound 0.01 µM
  viability, T/C: 101%
[5]
  viability, T/C: 141%
[6]
  viability, T/C: 158%
Second compound 1 µM, first compound 0.000316 µM
  viability, T/C: 106%
Second compound 1 µM, first compound 0.001 µM
  viability, T/C: 109%
Second compound 1 µM, first compound 0.00316 µM
  viability, T/C: 106%
Second compound 1 µM, first compound 0.01 µM
  viability, T/C: 110%
[7]
  viability, T/C: 125%
[8]
  viability, T/C: 160%
Second compound 3.16 µM, first compound 0.000316 µM
  viability, T/C: 130%
Second compound 3.16 µM, first compound 0.001 µM
  viability, T/C: 120%
Second compound 3.16 µM, first compound 0.00316 µM
  viability, T/C: 92.8%
Second compound 3.16 µM, first compound 0.01 µM
  viability, T/C: 115%
[9]
  viability, T/C: 138%
[10]
  viability, T/C: 161%
Second compound 10 µM, first compound 0.000316 µM
  viability, T/C: 124%
Second compound 10 µM, first compound 0.001 µM
  viability, T/C: 93.1%
Second compound 10 µM, first compound 0.00316 µM
  viability, T/C: 88.3%
Second compound 10 µM, first compound 0.01 µM
  viability, T/C: 127%
[11]
  viability, T/C: 169%
[12]
  viability, T/C: 164%

## O=C(c1cc(Cc2n[nH]c(=O)c3ccccc23)ccc1F)N1CCN(C(=O)C2CC2)CC1 + Cc1c(S(C)(=O)=O)c(-c2cc(F)cc(N3CCN(c4ccc(NS(=O)(=O)c5ccc(NC(CCN6CCC(C(=O)OCCCP(=O)(O)O)CC6)CSc6ccccc6)c(S(=O)(=O)C(F)(F)F)c5)cc4)CC3)c2)c(-c2ccc(Cl)cc2)n1C(C)C
Second compound 0.0316 µM
  IC50: > 10 µM
Second compound 0.1 µM
  IC50: > 10 µM
Second compound 0.316 µM
  IC50: > 10 µM
Second compound 1 µM
  IC50: > 10 µM
Second compound 3.16 µM
  IC50: > 10 µM
Second compound 10 µM
  IC50: > 10 µM
[1]
  viability, T/C: 95.1%
[2]
  viability, T/C: 97%
Second compound 0.0316 µM, first compound 0.316 µM
  viability, T/C: 88.2%
Second compound 0.0316 µM, first compound 1 µM
  viability, T/C: 102%
Second compound 0.0316 µM, first compound 3.16 µM
  viability, T/C: 137%
Second compound 0.0316 µM, first compound 10 µM
  viability, T/C: 114%
[3]
  viability, T/C: 100%
[4]
  viability, T/C: 87.9%
Second compound 0.1 µM, first compound 0.316 µM
  viability, T/C: 92.5%
Second compound 0.1 µM, first compound 1 µM
  viability, T/C: 98.2%
Second compound 0.1 µM, first compound 3.16 µM
  viability, T/C: 115%
Second compound 0.1 µM, first compound 10 µM
  viability, T/C: 137%
[5]
  viability, T/C: 103%
[6]
  viability, T/C: 101%
Second compound 0.316 µM, first compound 0.316 µM
  viability, T/C: 105%
Second compound 0.316 µM, first compound 1 µM
  viability, T/C: 110%
Second compound 0.316 µM, first compound 3.16 µM
  viability, T/C: 161%
Second compound 0.316 µM, first compound 10 µM
  viability, T/C: 130%
[7]
  viability, T/C: 132%
[8]
  viability, T/C: 96.7%
Second compound 1 µM, first compound 0.316 µM
  viability, T/C: 120%
Second compound 1 µM, first compound 1 µM
  viability, T/C: 120%
Second compound 1 µM, first compound 3.16 µM
  viability, T/C: 152%
Second compound 1 µM, first compound 10 µM
  viability, T/C: 109%
[9]
  viability, T/C: 134%
[10]
  viability, T/C: 106%
Second compound 3.16 µM, first compound 0.316 µM
  viability, T/C: 100%
Second compound 3.16 µM, first compound 1 µM
  viability, T/C: 104%
Second compound 3.16 µM, first compound 3.16 µM
  viability, T/C: 140%
Second compound 3.16 µM, first compound 10 µM
  viability, T/C: 107%
[11]
  viability, T/C: 125%
[12]
  viability, T/C: 107%
Second compound 10 µM, first compound 0.316 µM
  viability, T/C: 112%
Second compound 10 µM, first compound 1 µM
  viability, T/C: 124%
Second compound 10 µM, first compound 3.16 µM
  viability, T/C: 159%
Second compound 10 µM, first compound 10 µM
  viability, T/C: 98.9%
